Measurements as given in article PMC7835349 (Communications Biology, 2021).
Values joined by “and” are separate entries in the source; they are usually repeats but may differ in a detail not shown here. Equal entries are not always repeated.

Experiments:
[1] = test system: cleaved caspase-3 (CC3); experiment: Cleaved caspase-3 in RS4;11 tumours by MSD ELISA; assay type: in vivo, C.B-17 SCID mouse
Method: Tumours were excised, snap frozen in liquid nitrogen and stored at –80 °C. Tumours were homogenised in lysis buffer containing protease and phosphatase inhibitors, protein concentration determined by Pierce BCA Protein Assay Kit and diluted in lysis buffer to a protein concentration of 0.4 μg/μL. Cleaved caspase-3 (CC3) was measured using the mesoscale cleaved caspase-3 (Asp175) assay whole cell lysate kit according to manufacturer’s instructions. Induction of CC3 was expressed as fold change of treated tumours over vehicle control.

[2] = Plasma pharmacokinetics after IV bolus in C.B-17 SCID mouse; assay type: in vivo; settings: mouse, at 10 mg/kg or equivalent
Method: Pharmacokinetic studies were carried out in the female C.B-17 SCID mouse. Either freshly prepared solutions of AZD4320 in 30% hydroxypropyl-β-cyclodextrin or drug-dendrimer conjugates in phosphate buffered saline were injected as a bolus into the tail vein at dosing volume of 5 ml/kg. Blood samples were collected at different time points post dose and analysed as below.
Blood samples were collected from the jugular vein by venepuncture into K2EDTA (as anticoagulant) tubes. Immediately following collection into the K2EDTA tube the samples were mixed gently and kept on crushed ice until centrifugation. Within 30 mins of blood collection, each sample was centrifuged (1500 g for 10 min at 4 °C) to generate plasma which was kept on wet ice at all times in polypropylene tubes. Duplicate 50 μL aliquots were transferred immediately after centrifugation into uniquely labelled polypropylene tubes (‘released’ AZD4320) containing equivalent amount (50 μL) of 0.2 M citric acid solution, inverted 10 times and then stored in a freezer set to maintain a temperature of −80 °C, until analysis.
The concentrations of ‘total’ AZD4320 were determined in plasma by overnight incubation with hydrazine followed by protein precipitation with acetonitrile and subsequent liquid/liquid extraction. Liquid chromatography with mass spectrometric detection (LC-MS/MS, details in Supplementary Table 5) was used to quantitate both ‘released’ and ‘total’ AZD4320.
Sample analyses were performed in batches containing study samples, calibration standards at 10 concentration levels, QC samples at three concentration levels in duplicate and blank samples. The analytical run acceptance criteria for calibration standards and QC samples was that at least 75% of back-calculated concentrations for calibration standards and at least 2/3 of the QC samples (at least 50% at each concentration level) should be within ±20% (±25% at LLOQ) from nominal value.

[3] = test system: RS4;11 xenograft; experiment: RS4;11 mouse xenograft efficacy (tumour volume); assay type: in vivo, C.B-17 SCID mouse; design: key to tumour volume, individual animals: tumour volume in mm³, length × width²/0.52; settings: for tumour volume, individual animals: 20 mg/kg AZD4320; for Tumour volume, Geo Mean: RS4;11, AZD0466 10 mg/kg (3mg/kg AZD4320)
Method: Female C.B.−17 SCID mice were purchased from Charles River Laboratories. Mice were 5–8 weeks old at the time of tumour implantation. All xenograft studies were conducted at our Association for the Assessment and Accreditation of Laboratory Animal Care accredited facility in Waltham, MA in accordance with ethical regulations described in the guidelines established by the internal Institutional Animal Care and Use Committee. The dendrimer conjugates were formulated in citrate/phosphate buffer pH 5.0, diluted 1:10 with 5% glucose containing 1% w/v Kolliphor HS15, and AZD4320 was formulated in 30% HP-β-CD and dosed as a weekly intravenous (IV) administration at a volume of 5 ml/kg at the indicated doses. Five million RS4;11, five million SUDHL-4 or five million OCI-LY-10 cells were injected subcutaneously in the right flank of mice in a volume of 0.1 ml. Tumour volumes (measured by caliper), animal body weight, and tumor condition were recorded twice weekly for the duration of the study. The tumour volume was calculated (taking length to be the longest diameter across the tumour and width to be the corresponding perpendicular diameter) using the formula: length (mm) x width (mm)^2/0.52. For efficacy studies, mice were randomized based on tumour volumes using stratified sampling and enrolled into control and treatment groups. Tumour growth inhibition from the start of treatment was quantified by measuring the difference in tumour volume between control and treated groups. Survival analysis was evaluated using Mantel-Cox test. Tumours were also taken for bioanalysis.

AZD4320-MIDA-PEG2100 [AZD0466]
CC3 PD fold over vehicle, individual tumours ([1]; RS4;11, single dose AZD0466 34 mg/kg (10mg/kg AZD4320), 3 hr): 1.1 fold over vehicle (2×) and 0.9 fold over vehicle
CC3 PD fold over vehicle, individual tumours ([1]; RS4;11, single dose AZD0466 34 mg/kg (10mg/kg AZD4320), 8 hr): 1.1 fold over vehicle and 1.5 fold over vehicle and 1 fold over vehicle
CC3 PD fold over vehicle, individual tumours ([1]; RS4;11, single dose AZD0466 34 mg/kg (10mg/kg AZD4320), 24 hr): 12.2 fold over vehicle and 4.6 fold over vehicle and 5.3 fold over vehicle
CC3 PD fold over vehicle, individual tumours ([1]; RS4;11, single dose AZD0466 34 mg/kg (10mg/kg AZD4320), 48 hr): 8.7 fold over vehicle and 9 fold over vehicle and 11 fold over vehicle
CC3 PD fold over vehicle, individual tumours ([1]; RS4;11, single dose AZD0466 34 mg/kg (10mg/kg AZD4320), 72 hr): 1.8 fold over vehicle and 1.4 fold over vehicle and 2.1 fold over vehicle
CC3 PD fold over vehicle, individual tumours ([1]; RS4;11, single dose AZD0466 103 mg/kg (30mg/kg AZD4320), 3 hr): 6.8855 fold over vehicle and 4.506 fold over vehicle and 6.287 fold over vehicle
CC3 PD fold over vehicle, individual tumours ([1]; RS4;11, single dose AZD0466 103 mg/kg (30mg/kg AZD4320), 8 hr): 52.0454 fold over vehicle and 56.5349 fold over vehicle and 45.3617 fold over vehicle
CC3 PD fold over vehicle, individual tumours ([1]; RS4;11, single dose AZD0466 103 mg/kg (30mg/kg AZD4320), 24 hr): 82.2669 fold over vehicle and 79.7603 fold over vehicle and 78.3412 fold over vehicle
CC3 PD fold over vehicle, individual tumours ([1]; RS4;11, single dose AZD0466 103 mg/kg (30mg/kg AZD4320), 48 hr): 33.7478 fold over vehicle and 42.9825 fold over vehicle and 23.216 fold over vehicle
CC3 PD fold over vehicle, individual tumours ([1]; RS4;11, single dose AZD0466 103 mg/kg (30mg/kg AZD4320), 72 hr): 7.7976 fold over vehicle and 4.512 fold over vehicle and 6.025 fold over vehicle
Total Concentration in Plasma as AZD4320, Mean (Fig S9) ([2]; 1 hr): 117.3 µg/mL
Total Concentration in Plasma as AZD4320, Mean (Fig S9) ([2]; 3 hr): 49.1 µg/mL
Total Concentration in Plasma as AZD4320, Mean (Fig S9) ([2]; 9 hr): 36.3 µg/mL
Total Concentration in Plasma as AZD4320, Mean (Fig S9) ([2]; 20 hr): 8.0 µg/mL
tumour volume, individual animals ([3]; Day 38, listed as SPL-8977, 20 mg/kg, in mm³ (unit assumed)): 600 and 609 and 679 and 641
tumour volume, individual animals ([3]; Day 41, listed as SPL-8977, 20 mg/kg, in mm³ (unit assumed)): 419 and 480 and 364 and 544
tumour volume, individual animals ([3]; Day 45, listed as SPL-8977, 20 mg/kg): 0 (2×) and 133 and 130
tumour volume, individual animals ([3]; Day 48, listed as SPL-8977, 20 mg/kg): 0 (3×) and 75
tumour volume, individual animals ([3]; Day 52, listed as SPL-8977, 20 mg/kg): 0 (3×) and 134
tumour volume, individual animals ([3]; Day 55, in mm³ (unit assumed)): 0
tumour volume, individual animals ([3]; Day 59, listed as SPL-8977, 20 mg/kg): 0 (2×) and 122 and 66
tumour volume, individual animals ([3]; Day 63, listed as SPL-8977, 20 mg/kg, in mm³ (unit assumed)): 275 and 244 and 0 and 343
tumour volume, individual animals ([3]; Day 66, listed as SPL-8977, 20 mg/kg, in mm³ (unit assumed)): 255 and 188 and 196 and 333
tumour volume, individual animals ([3]; Day 69, listed as SPL-8977, 20 mg/kg, in mm³ (unit assumed)): 384 and 259 and 193 and 637
tumour volume, individual animals ([3]; Day 73, listed as SPL-8977, 20 mg/kg, in mm³ (unit assumed)): 574 and 450 and 240 and 837
AZD4320-equivalent dose of dendrimer conjugate needed to match efficacy of AZD4320 ([3]; RS4;11): approximately twice the dose
magnitude of in vivo efficacy ([3]; RS4;11, 20 mg/kg AZD4320 equivalent dose vs SPL-8932 20 mg/kg equivalent and AZD4320 10 mg/kg): comparable to that of SPL-8932 and AZD4320
Tumour volume, Geo Mean ([3]; day 41): 492.913
Tumour volume, Geo Mean ([3]; day 44): 317.328
Tumour volume, Geo Mean ([3]; day 48): 5.078
Tumour volume, Geo Mean ([3]; day 51): 2.414
Tumour volume, Geo Mean ([3]; day 55): 1
Tumour volume, Geo Mean ([3]; day 58): 49.5834
Tumour volume, Geo Mean ([3]; day 63): 177.592
